This note sets out measurements from patent publication US11731958B2, “Carboxamide compounds and uses thereof” (Incyte Corporation, priority 2018, dated 2023).

In this experiment the target is HPK1 (Homo sapiens (Human), UniProt Q92918). Briefly: HPK1 Kinase Binding Assay. The note with it: LanthaScreen tracer 222 binding, active HPK1, one hour at 25° C. As to the method:
A stock solution of 1 mM test compound was prepared in DMSO. The compound plate was prepared by 3-fold and 11-point serial dilutions. 0.1 μL of the compound in DMSO was transferred from the compound plate to the white 384 well polystyrene plates. The assay buffer contained 50 mM HEPES, pH 7.5, 0.01% Tween-20, 5 mM MgCl2, 0.01% BSA, and 5 mM DTT. 5 μL of 4 nM active HPK1 (SignalChem M23-11G) prepared in the buffer was added to the plate. The enzyme concentration given was based on the given stock concentration reported by the vender. […] After one hour incubation at 25° C., the plates were read on a PHERAstar FS plate reader (BMG Labtech). Ki values were determined.
In general terms: TR-FRET usually uses a lanthanide donor and a delayed reading to cut background.

In general, Ki refers to the dissociation constant of the complex between target and ligand, obtained from inhibition or displacement. A low value points to higher affinity.

Chain of HPK1 (Q92918 1-346): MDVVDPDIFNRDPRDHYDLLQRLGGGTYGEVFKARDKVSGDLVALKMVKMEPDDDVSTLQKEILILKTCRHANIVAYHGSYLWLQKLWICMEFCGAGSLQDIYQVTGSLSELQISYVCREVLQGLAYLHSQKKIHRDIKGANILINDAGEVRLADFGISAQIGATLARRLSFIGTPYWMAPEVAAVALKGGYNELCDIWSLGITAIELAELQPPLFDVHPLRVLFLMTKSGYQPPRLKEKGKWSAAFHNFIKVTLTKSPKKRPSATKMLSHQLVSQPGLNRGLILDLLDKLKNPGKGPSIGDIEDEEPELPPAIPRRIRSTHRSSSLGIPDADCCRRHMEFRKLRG

`COc1cccc(F)c1-c1nccc(C(=O)Nc2ccc(-c3c(C)nn(C)c3C)cc2N2C[C@@H]3C[C@H]2CN3)n1` [Example 27, N-(2-((1S,4S)-2,5-Diazabicyclo[2.2.1]heptan-2-yl)-4-(1,3,5-trimethyl-1H-pyrazol-4-yl)phenyl)-2-(2-fluoro-6-methoxyphenyl)pyrimidine-4-carboxamide] returned a Ki of under 100 nM.
`COc1cccc(F)c1-c1nccc(C(=O)Nc2cc(F)c(N3CCOCC3)cc2N2C[C@@H]3C[C@H]2CN3)n1` [Example 28, N-(2-((1S,4S)-2,5-Diazabicyclo[2.2.1]heptan-2-yl)-5-fluoro-4-morpholinophenyl)-2-(2-fluoro-6-methoxyphenyl)pyrimidine-4-carboxamide]: the inhibition constant Ki was under 100 nM.
The value for `COc1cccc(F)c1-c1nccc(C(=O)Nc2cc(F)c(N3CCC3)cc2N2C[C@@H]3C[C@H]2CN3)n1` [Example 29, N-(4-(Azetidin-1-yl)-2-((1S,4S)-2,5-diazabicyclo[2.2.1]heptan-2-yl)-5-fluorophenyl)-2-(2-fluoro-6-methoxyphenyl)pyrimidine-4-carboxamide] was under 100 nM.
The value for `COc1cccc(F)c1-c1nccc(C(=O)Nc2cc(F)c(CN3CCOCC3)cc2N2C[C@@H]3C[C@H]2CN3)n1` [Example 30, N-(2-((1S,4S)-2,5-Diazabicyclo[2.2.1]heptan-2-yl)-5-fluoro-4-(morpholinomethyl)phenyl)-2-(2-fluoro-6-methoxyphenyl)pyrimidine-4-carboxamide] was under 100 nM.
